# Test results published in US20250195672A1, “DENDRIMER COMPOSITIONS FOR TARGETED DELIVERY OF THERAPEUTICS TO NEURONS” (priority 2022, published 2025).
# “Also recorded” adds a separate entry of the source.
# Tested on: YFP-expressing cortical neurons
# Experiment: GD2-Cy5 uptake in ex vivo cortical brain sections: neuronal activity and glucose transporter blockade
# Type: cell-based, mouse
# Conditions: 30 minutes pre-treatment in Mg2+ free ACSF: cytochalasin B 5 μM, glutor 10 μM, phlorizin 10 μM, GD2-Cy5 10 μg/ml
# Experimental: FIG. 9A is scheme of the experiment in which 300 μm cortical brain sections were pre-treated for 30 minutes with control ACSF (Mg2+ free, increases neuronal firing) or ACSF containing Mg2+/NMDG (suppressed neuronal activity) or control ACSF with either cytochalasin B (5 μM) or glutor ([…]). After pre-treatment, brain sections were incubated with GD2-Cy5 (10 μg/ml) for 30 minutes followed by 10% formalin fixation and confocal imaging.
# 300 μm cortical brain sections were pre-treated for 30 minutes with Mg2+ free artificial cerebrospinal fluid (ACSF) (increases neuronal firing) or ACSF containing Mg2+/NMDG (suppressed neuronal activity) or Mg2+ free ACSF with cytochalasin B (5 μM) or glutor (10 μM) or phlorizin (10 μM). After pre-treatment, brain sections were incubated with GD2-Cy5 (10 μg/ml) for 30 minutes followed by formalin fixation and confocal imaging. Mean fluorescence intensities for GD-Cy5 were evaluated in YFP-expressing cortical neurons. Confocal images of fixed sections showing DAPI (nucleus), YFP (neurons) and GD2-Cy5 with different treatments were taken and analyzed.
# CP rabbit kits or Thy1-YFP mice were deeply anesthetized with isoflurane and decapitated. Brains were removed and transferred to oxygenated (95% O2/5% CO2), ice-cold N-Methyl-D-glucamin (NMDG)-based buffer (Buffer1, in mM: 92 NMDG, 2.5 KCl, 10 MgSO4, 0.5 CaCl2, 1.2 NaH2PO4, 30 NaHCO3, 25 glucose, 20 HEPES, 5 sodium ascorbate, 3 sodium pyruvate, 2 thiourea; pH 7.4). Coronal brain slices ([…]) were then obtained using a vibratome (VT1200, Leica). Slices were first incubated in the NMDG-based solution at 34° C. for 10 minutes, then transferred and maintained in the same solution for an hour at room temperature before starting subsequent experiment. Dendrimer-Cy5 was added in 5 ml of Buffer2 (in mM: 125 NaCl, 2.5 KCl, 1 MgCl2, 2 CaCl2, 1.25 NaH2PO4, 26 NaHCO3, 20 glucose; pH 7.4) containing brain slices and incubated for 30 min while oxygenation at room temperature. […]
row,Compound,Effect of transporter blocker pre-treatment on GD2 uptake by neurons
1,O=C(CCc1ccc(O)cc1)c1c(O)cc(O)cc1O[C@@H]1O[C@H](CO)[C@@H](O)[C@H](O)[C@H]1O [Phlorizin],diminished GD2 uptake
2,C=C1[C@@H](C)[C@H]2[C@H](Cc3ccccc3)NC(=O)[C@]23OC(=O)/C=C/[C@H](O)CCC[C@@H](C)C/C=C/[C@H]3[C@@H]1O [cytochalasin B],diminished GD2 uptake; also recorded: significantly decreased
3,C[C@@]1(C(=O)NCc2cccnc2)Cn2nc(-c3ccccc3)cc2C(=O)N1Cc1ccc(N2CCOCC2)cc1 [glutor],diminished GD2 uptake; also recorded: significantly decreased
